{"source": "patent US20070155803A1", "about": "“Protease inhibitors” (ProZymex A/S, priority 2003, published 2007)", "key": {"Aspergillus DPP-IV": {"biological_target": "T1, Aspergillus DPP-IV (UniProt Q2UH35)", "T1 construct": "Aspergillus DPP-IV (Enzyme System Products, SPE01)", "T1 sequence (Q2UH35 1-771)": "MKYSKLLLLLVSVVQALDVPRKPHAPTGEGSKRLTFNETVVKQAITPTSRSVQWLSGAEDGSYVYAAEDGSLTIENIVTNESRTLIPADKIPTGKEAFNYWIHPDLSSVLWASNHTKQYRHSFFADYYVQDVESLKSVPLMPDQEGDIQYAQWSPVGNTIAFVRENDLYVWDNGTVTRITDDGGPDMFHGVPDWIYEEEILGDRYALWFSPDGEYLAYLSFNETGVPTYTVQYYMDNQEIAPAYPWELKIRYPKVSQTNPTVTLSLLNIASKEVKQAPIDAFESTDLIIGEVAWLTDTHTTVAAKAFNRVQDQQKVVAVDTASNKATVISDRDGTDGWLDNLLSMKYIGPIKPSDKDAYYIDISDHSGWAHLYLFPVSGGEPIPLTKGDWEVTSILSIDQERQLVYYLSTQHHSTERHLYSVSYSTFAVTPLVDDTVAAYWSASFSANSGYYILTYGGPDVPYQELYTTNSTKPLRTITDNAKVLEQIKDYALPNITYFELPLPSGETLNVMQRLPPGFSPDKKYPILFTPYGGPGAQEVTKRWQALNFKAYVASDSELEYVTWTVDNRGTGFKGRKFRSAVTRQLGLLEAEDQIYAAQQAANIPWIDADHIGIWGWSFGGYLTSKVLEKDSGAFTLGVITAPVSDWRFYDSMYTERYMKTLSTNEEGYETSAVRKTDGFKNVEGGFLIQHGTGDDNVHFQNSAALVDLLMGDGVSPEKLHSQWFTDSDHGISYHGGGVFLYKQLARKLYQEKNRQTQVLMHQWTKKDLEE", "assay": "Aspergillus DPP-IV assay", "assay_type": "biochemical", "method": "Using this assay, the selectivity of a compound of the invention for hDPP-I over Aspergillus DPP-IV was determined, using a fluorogenic substrate.\nAspergillus DPP-IV (Enzyme System Products, SPE01; 5 mU dissolved in 25 μL assay buffer, giving a stock with a concentration of a 0.2 mU/μL). Prior to running experiment, 5 μL of enzyme stock solution was diluted to 0.004 mU/μL with 245 μL buffer.\nGly-Pro-AFC*TFA (Enzyme System Products AF039; 10 mg) was dissolved in 1 mL DMSO, giving a 20 mM solution. Diluted further in buffer to. 1 mM.\nThe assay was performed in 96-well plates. 60 μL assay buffer was added to the well followed-by 10 μL 1% DMSO in assay buffer (control) or a compound of the invention (100 μM, corresponding to 10 μM in the assay). Incubated at 37° C., then 10 μL enzyme (corresponding to 0.04 mU in assay) was added, followed by 10 μL substrate (100 μM in the assay). The excitation wavelength was 400 nm, and the emission was measured at 505 nm for 10-20 minutes at 30° C. Each measurement was made in duplicate. In the software (SOFTmax Pro) used for data collection from the fluorometer (Molecular Devices: Gemini XS), it was ensured that the measured slopes were linear (R^2>0.99). Data were exported to GraphPad Prism and nonlinear regression was performed using the option Sigmoidal dose-response (variable slope)."}, "CYP2C19": {"biological_target": "T2, CYP2C19 (Homo sapiens, UniProt P33261)", "T2 construct": "purchased PanVera Vivid CYP2C19 Red Screening Kit", "T2 sequence (P33261 whole entry)": "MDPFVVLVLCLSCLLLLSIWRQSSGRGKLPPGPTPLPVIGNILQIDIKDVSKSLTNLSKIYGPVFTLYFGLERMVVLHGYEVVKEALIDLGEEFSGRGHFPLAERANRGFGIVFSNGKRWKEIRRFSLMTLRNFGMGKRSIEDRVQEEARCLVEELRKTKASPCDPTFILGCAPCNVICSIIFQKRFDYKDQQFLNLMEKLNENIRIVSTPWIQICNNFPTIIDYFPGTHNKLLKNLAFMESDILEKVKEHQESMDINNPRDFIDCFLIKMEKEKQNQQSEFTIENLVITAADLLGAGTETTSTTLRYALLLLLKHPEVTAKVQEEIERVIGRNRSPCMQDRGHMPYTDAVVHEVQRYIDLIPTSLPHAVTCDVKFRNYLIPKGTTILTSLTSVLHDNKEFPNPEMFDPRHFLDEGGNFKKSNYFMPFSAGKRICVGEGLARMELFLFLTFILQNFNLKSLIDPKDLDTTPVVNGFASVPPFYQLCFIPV", "assay": "CYP2C19 assay (Vivid CYP2C19 Red Screening Kit)", "assay_type": "in vitro ADME", "settings": "20 μM cutoff; read-out: Metabolism: CYP enzymes (20 μM cutoff or IC50) CYP2C19", "method": "Tubes thawed on ice. 2× reaction buffer dispensed (room temperature) in two eppendorf tubes (for Mix A and Mix B).\nControls or compounds of the invention: Diluted to a concentration of 50 μM. Positive control compound: α-naphthoflavone.\nNegative controls: DMSO and H2O.\nMix A: 485 μL reaction buffer, 10 μL regeneration system, 5 μL Baculosome reagent. Mixed gently and placed on ice.\nMix B: 88.5 μL reaction buffer, 1.5 μL substrate, 10 μL 10 mM NADP^+.\nIn a 96-well plate (Costar c-3904), 40 μL of 50 μM sample dispensed. 50 μl Mix A added. Incubated 20 min. at rt. Then, 10 μl of Mix B added. Fluorescence determined (Molecular Devices, SPECTRAmax Gemini EM): Ex: 409 nm, Em: 460 nm, at 37° C. for 20 min. (Automix: 5 s, top read.).\nFollowing the procedure for CYP1A2, using the appropriate kits below, the effect of a compound of the invention on the other CYP enzymes was determined:\nVivid® CYP2C19 Red Screening Kit from PanVera."}, "[1]": {"assay": "Metabolic stability in rat liver microsomes", "assay_type": "in vitro ADME", "settings": "pH 7.4; rat liver microsomes 0.3 mg/mL, test compound 1 μM, 37° C.; read-out: Metabolic stability (t1/2 in min.) Rat liver microsomes", "method": "Assay for Determination of Metabolic Stability is Rat Liver Microsomes\nThe assay was performed at Cerep (Seattle) according to the protocol described by Kuhnz et. al. (Kuhnz, W., Gieschen, H. Drug Metab. Dispos., 26, 1120-1127), using rat liver microsomes (0.3 mg/mL), test compound (1 μM), NADP (1 mM), and G6P (5 mM), and G6PDHase (1 U/mL) with 0.6% methanol/0.6% acetonitrile in water. Incubation was performed at 37° C. in phosphate buffer (50 mM, pH=7.4), and the samples were analyzed for remaining product ion (selected reaction monitoring)by HPLC-MS/MS (Thermo Finnigan) at 0, 15, 30, 45 and 60 min. intervals."}}, "note": "Square brackets hold non-standard residues; d marks the D form. Peptide text beside a SMILES is read from it. Phe(3-F) = N[C@@H](Cc1cccc(F)c1)C(=O)O; hPhe = N[C@@H](CCc1ccccc1)C(=O)O; Abu = CC[C@H](N)C(=O)O; azaGly = NNC(=O)O", "data": [{"smiles": "CC[C@H](N)C(=O)NNC(=O)N[C@@H](CCc1ccccc1)C(=O)N[C@@H](Cc1cccc(F)c1)C(N)=O", "note": "[Example 11, 1-(2S-2-Aminobutanoyl)-4-[2S-N-[2S-3-(m-fluorophenyl)propan-2-yl-amide]-4-phenylbutan-2-yl-amide]semicarbazide] (H-[Abu][azaGly][hPhe][Phe(3-F)]-NH2)", "values": [{"measurement": "Inhibition of DPP-IV (in words)", "setting": "Aspergillus DPP-IV", "result": "does not inhibit"}, {"measurement": "IC50", "setting": "Aspergillus DPP-IV; Aspergillus DPP-IV, 10 μM cutoff, read-out: Secondary enzymatic screening (10 μM cutoff or IC50) DPP-IV", "result": "> 10", "unit": "µM"}, {"measurement": "IC50", "setting": "CYP2C19", "result": "> 20", "unit": "µM"}, {"measurement": "half-life at 1 μM", "setting": "[1]", "result": 23, "unit": "min"}]}]}
